Source: PubChem BioAssay (NCI)
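These data come from cells grown in 96-well plates and exposed to compound for 48 hours at five concentrations. GI50: concentration for 50% inhibition of growth. TGI: concentration producing complete growth inhibition.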

Assays:
Assay in all cases: NCI-60 cell line screen, 48 h
786-0 renal = test system: 786-0 renal
A549 NSCLC = test system: A549 NSCLC
ACHN renal = test system: ACHN renal
BT-549 breast = test system: BT-549 breast
CAKI-1 renal = test system: CAKI-1 renal
CCRF-CEM leukemia = test system: CCRF-CEM leukemia
COLO 205 colon = test system: COLO 205 colon
DU-145 prostate = test system: DU-145 prostate
EKVX NSCLC = test system: EKVX NSCLC
HCT-116 colon = test system: HCT-116 colon
HCT-15 colon = test system: HCT-15 colon
HOP-62 NSCLC = test system: HOP-62 NSCLC
HOP-92 NSCLC = test system: HOP-92 NSCLC
HS 578T breast = test system: HS 578T breast
HT29 colon = test system: HT29 colon
IGROV1 ovarian = test system: IGROV1 ovarian
K-562 leukemia = test system: K-562 leukemia
KM12 colon = test system: KM12 colon
LOX IMVI melanoma = test system: LOX IMVI melanoma
M14 melanoma = test system: M14 melanoma
MALME-3M melanoma = test system: MALME-3M melanoma
MCF7 breast = test system: MCF7 breast
MDA-MB-231 breast = test system: MDA-MB-231 breast
MDA-MB-435 = test system: MDA-MB-435
MOLT-4 leukemia = test system: MOLT-4 leukemia
NCI-H226 lung = test system: NCI-H226 lung
NCI-H23 lung = test system: NCI-H23 lung
NCI-H460 lung = test system: NCI-H460 lung
NCI-H522 lung = test system: NCI-H522 lung
NCI/ADR-RES ovarian = test system: NCI/ADR-RES ovarian
OVCAR-3 ovarian = test system: OVCAR-3 ovarian
OVCAR-4 ovarian = test system: OVCAR-4 ovarian
OVCAR-5 ovarian = test system: OVCAR-5 ovarian
OVCAR-8 ovarian = test system: OVCAR-8 ovarian
PC-3 prostate = test system: PC-3 prostate
RPMI-8226 leukemia = test system: RPMI-8226 leukemia
RXF 393 renal = test system: RXF 393 renal
SF-268 CNS = test system: SF-268 CNS
SF-295 CNS = test system: SF-295 CNS
SK-MEL-2 melanoma = test system: SK-MEL-2 melanoma
SK-MEL-28 melanoma = test system: SK-MEL-28 melanoma
SK-MEL-5 melanoma = test system: SK-MEL-5 melanoma
SK-OV-3 ovarian = test system: SK-OV-3 ovarian
SN12C renal = test system: SN12C renal
SNB-19 CNS = test system: SNB-19 CNS
SR leukemia = test system: SR leukemia
SW-620 colon = test system: SW-620 colon
T-47D breast = test system: T-47D breast
TK-10 renal = test system: TK-10 renal
U251 CNS = test system: U251 CNS
UACC-62 melanoma = test system: UACC-62 melanoma
UO-31 renal = test system: UO-31 renal

What does the source list for `Oc1ccc(Nc2c3ccccc3nc3occ(Cl)c23)cc1`?
GI50 (786-0 renal): 12.9 µM; TGI (786-0 renal): > 100 µM; GI50 (A549 NSCLC): 3.3 µM; TGI (A549 NSCLC): 32.2 µM; GI50 (ACHN renal): 15.2 µM; TGI (ACHN renal): > 100 µM; GI50 (BT-549 breast): 19.4 µM; TGI (BT-549 breast): > 100 µM; GI50 (CAKI-1 renal): 3.95 µM; TGI (CAKI-1 renal): > 100 µM; GI50 (CCRF-CEM leukemia): 1420 nM; TGI (CCRF-CEM leukemia): 6.12 µM; GI50 (COLO 205 colon): 4.12 µM; TGI (COLO 205 colon): > 100 µM; GI50 (DU-145 prostate): 22.4 µM; TGI (DU-145 prostate): > 100 µM; GI50 (EKVX NSCLC): 14.8 µM; TGI (EKVX NSCLC): > 100 µM; GI50 (HCT-116 colon): 5.85 µM; TGI (HCT-116 colon): > 100 µM; GI50 (HCT-15 colon): 4.77 µM; TGI (HCT-15 colon): > 100 µM; GI50 (HOP-62 NSCLC): 4.37 µM; TGI (HOP-62 NSCLC): 36.2 µM; GI50 (HOP-92 NSCLC): 90.5 nM; TGI (HOP-92 NSCLC): 8.96 µM; GI50 (HS 578T breast): 5.62 µM; TGI (HS 578T breast): > 100 µM; GI50 (HT29 colon): 4.49 µM; TGI (HT29 colon): > 100 µM; GI50 (IGROV1 ovarian): 1190 nM; TGI (IGROV1 ovarian): 5.32 µM; GI50 (K-562 leukemia): 2240 nM; TGI (K-562 leukemia): 53.1 µM; GI50 (KM12 colon): 2780 nM; TGI (KM12 colon): 17 µM; GI50 (LOX IMVI melanoma): 6.68 µM; TGI (LOX IMVI melanoma): > 100 µM; GI50 (M14 melanoma): 3.79 µM; TGI (M14 melanoma): 26.8 µM; GI50 (MALME-3M melanoma): 2130 nM; TGI (MALME-3M melanoma): 8.62 µM; GI50 (MCF7 breast): 3.38 µM; TGI (MCF7 breast): 11.3 µM; GI50 (MDA-MB-231 breast): 2430 nM; TGI (MDA-MB-231 breast): 7.39 µM; GI50 (MDA-MB-435): 1530 nM; TGI (MDA-MB-435): 6.51 µM; GI50 (MOLT-4 leukemia): 3.14 µM; TGI (MOLT-4 leukemia): 13.2 µM; GI50 (NCI-H226 lung): 3.12 µM; TGI (NCI-H226 lung): 13.5 µM; GI50 (NCI-H23 lung): 3.26 µM; TGI (NCI-H23 lung): > 100 µM; GI50 (NCI-H460 lung): 3.68 µM; TGI (NCI-H460 lung): 28.9 µM; GI50 (NCI-H522 lung): 2370 nM; TGI (NCI-H522 lung): 8.32 µM; GI50 (NCI/ADR-RES ovarian): 2690 nM; TGI (NCI/ADR-RES ovarian): 18.2 µM; GI50 (OVCAR-3 ovarian): 3.12 µM; TGI (OVCAR-3 ovarian): 8.76 µM; GI50 (OVCAR-4 ovarian): 7.44 µM; TGI (OVCAR-4 ovarian): > 100 µM; GI50 (OVCAR-5 ovarian): 19 µM; TGI (OVCAR-5 ovarian): > 100 µM; GI50 (OVCAR-8 ovarian): 5.5 µM; TGI (OVCAR-8 ovarian): 57.9 µM; GI50 (PC-3 prostate): 2710 nM; TGI (PC-3 prostate): 20.3 µM; GI50 (RPMI-8226 leukemia): 1610 nM; TGI (RPMI-8226 leukemia): 4.81 µM; GI50 (RXF 393 renal): 3.83 µM; TGI (RXF 393 renal): 70.3 µM; GI50 (SF-268 CNS): 4.26 µM; TGI (SF-268 CNS): > 100 µM; GI50 (SF-295 CNS): 4.65 µM; TGI (SF-295 CNS): > 100 µM; GI50 (SK-MEL-2 melanoma): 2620 nM; TGI (SK-MEL-2 melanoma): 7.26 µM; GI50 (SK-MEL-28 melanoma): 6.18 µM; TGI (SK-MEL-28 melanoma): 63.8 µM; GI50 (SK-MEL-5 melanoma): 3.92 µM; TGI (SK-MEL-5 melanoma): 18.3 µM; GI50 (SK-OV-3 ovarian): 4.77 µM; TGI (SK-OV-3 ovarian): > 100 µM; GI50 (SN12C renal): 2890 nM; TGI (SN12C renal): 26.4 µM; GI50 (SNB-19 CNS): 4.62 µM; TGI (SNB-19 CNS): > 100 µM; GI50 (SR leukemia): 2300 nM; TGI (SR leukemia): 8.62 µM; GI50 (SW-620 colon): 4.71 µM; TGI (SW-620 colon): > 100 µM; GI50 (T-47D breast): 6.49 µM; TGI (T-47D breast): > 100 µM; GI50 (TK-10 renal): 6.46 µM; TGI (TK-10 renal): 50.8 µM; GI50 (U251 CNS): 5.63 µM; TGI (U251 CNS): > 100 µM; GI50 (UACC-62 melanoma): 2400 nM; TGI (UACC-62 melanoma): 10.4 µM; GI50 (UO-31 renal): 5.61 µM; TGI (UO-31 renal): 24.4 µM
